The text below walks through data of BindingDB's records for doi:10.1021/jm00117a005 (Sterling-Winthrop Research Institute, 1988).

In the assay the target is DNA gyrase (Escherichia coli). Kind of assay: Gyrase inhibitory activity against Escherichia coli.

Turning to `CN1CCN(c2c(F)cc3c(=O)c(C(=O)O)cn4c3c2OCC42CC2)CC1`, the IC50 (in general, the concentration at which inhibition is half-maximal) came to 2670 nM.
